{
  "source": "patent US12685725B2",
  "about": "“Pridopidine for the treatment of mitochondrial-associated diseases and disorders and endoplasmic reticulum (ER) stress” (PRILENIA NEUROTHERAPEUTICS LTD., priority 2019, dated 2026)",
  "key": {"YAC128 striatal neurons": {"tested_on": "YAC128 striatal neurons", "conditions": "1 μM", "experimental": "Briefly, plasmid was diluted in TE (in mM: 1 Tris-HCl pH 7.3, 1 mM EDTA), followed by the addition of CaCl2 (in mM: 2.5 CaCl2 in 10 HEPES, pH 7.2). The DNA solution was carefully added to 2×HEBS (in mM: 12 dextrose, 50 HEPES, 10 KCl, 280 NaCl and 1.5 Na2HPO4·2H2O, pH 7.2) while bubbling air through the solution. The mixture was then incubated for 25 min at room temperature. The precipitates were added dropwise to the coverslips in Neurobasal medium and incubated for 80 minutes at 37° C. The DNA-Ca^2+-phosphate precipitates were dissolved with freshly-made dissolution medium (Neurobasal medium with 20 mM HEPES, pH 6.8) and incubated for 7 min at room temperature. The transfected neurons were then washed with Neurobasal medium and transferred back to their original dishes containing conditioned culture medium until DIV12."}, "[1]": {"tested_on": "WT and YAC128 cortical and striatal neurons", "conditions": "24 h", "experimental": "(§1) Mitochondrial membrane potential (Δψm) was assessed in cortical and striatal neurons using the positively changed fluorescent probe TMRM (tetramethylrhodamine methyl ester) (Thermo Fisher Sci., catalog no: T668) and in cortical/striatal co-cultures and lymphoblasts using an equivalent probe, TMRE (tetramethylrhodamine ethyl ester) (Abcam, catalog no. ab113852).\nUnder these conditions, retention of TMRM by mitochondria was studied to estimate changes in Δψm. […] TMRM release was calculated based in the differences in fluorescence before and after addition of oligomycin/FCCP."}, "HD human lymphoblasts": {"tested_on": "HD human lymphoblasts", "conditions": "24 h pre-treatment", "experimental": "The lymphoblasts were passaged 1:3 every five to six days. For conducting experiments, the lymphoblasts were collected and centrifuged at 145×g for 5 min. The cell pellet was resuspended in fresh growth medium. Lymphoblasts between passage number 5 and 20 were used in each experiment.\nas §1\nTMRE assay: Primary neurons and lymphoblasts in suspension were cultured in 6-well plates."}, "[2]": {"tested_on": "STHdh^Q7/7 cells expressing Htt96Q-mCherry or Htt20Q-mCherry", "experimental": "(§2) Transfections of HEK 293 cells were carried out according to the calcium phosphate method. STHdh^Q7/7 cells are a murine striatal cell line with a stable knock-in of the full-length wild type (WT) human Htt containing a polyglutamine stretch of 7 glutamines (Trettel et al. 2000). […] No cell line used is listed as a commonly misidentified cell line. Cell lines were not authenticated. To reduce any risk of cross-contamination they were grown for a limited number of passages. Transient transfections of NIH 3T3 and STHdh^Q7/7 cells were performed using an MP-100 Microporator (Digital Bio) or ViaFect™ Transfection Reagent (Cat.No. E4981) (Promega), according to the manufacturer's protocols.\n(§3) Briefly, cells grown for 24 h after transfection on coverslips in 24-well plates were fixed with 3% paraformaldehyde, followed by blocking with 50 mM glycine in PBS and normal goat IgG in PBS/2% BSA. The cells were incubated with primary antibodies for 1 h, washed and incubated for 30 min with secondary antibodies, followed by washes. Nuclei were stained with 4′,6-diamidino-2-phenylindole (Cat.No. F6057) (Sigma). Confocal microscopy was done on a Zeiss laser scanning confocal microscope (LSM 510; Carl Zeiss, Jena, Germany) as described previously. ImageJ was used to quantify fluorescence intensity in images of treated individual cells compared to untreated cells with and without Htt96Q-mCherry aggregates and to calculate Mander's coefficients for colocalization studies."}, "[3]": {"tested_on": "S1R/BiP colocalization in NIH 3T3 cells", "experimental": "Colocalization of S1R and mitochondria was assessed in NIH 3T3 cells expressing WT myc-Htt20Q or mutant myc-Htt96Q. Cells were then fixed, permeabilized and reacted with mouse anti-myc and rabbit anti-S1R. Images were pseudo-colored to better visualize the colocalization of S1R and MitoTracker.\nas §2, §3"}, "[4]": {"tested_on": "Htt96Q aggregates in S1R+/+ and S1R−/− HEK 293 cells", "conditions": "24 h", "experimental": "HEK 293 cells were grown on 60 mm plates and transfected for the expression of myc-Htt96Q. Cells were collected 24 hours post-transfection. After washing with 1×PBS cells were resuspended in 100 μl of 1×PBS+ protease inhibitor cocktail. Sonication was done in a sonic bath for 3×10 sec (amp5-6), leaving on ice for 30 sec between the sonications. Cell debris were removed by centrifugation at 16,000×g for 15 min and protein concentration was measured in the supernatant using the BCA method. Samples containing 50 μg total protein were taken and the volume adjusted to 100 μl with 1% SDS in PBS. After incubation for 5 min at 100° C. sample duplicates were loaded on the slots of a nitrocellulose membrane pre-wet with 1% SDS in PBS in a dot-blotting apparatus. Slots were washed twice with 1 ml 1% SDS in PBS and the membrane was transferred to 5% milk blocking solution. Immunoblotting was performed as described above."}, "[5]": {"tested_on": "cortico-striatal co-cultures (YAC128)", "conditions": "Y128, 1 μM, n=4", "description": "For cortico-striatal co-cultures, brains were removed and transferred to Hibernate E medium (Thermo Fisher Sci., catalog no: A1247601) for up to 24 h. […] The cortex and striatum were micro-dissected in ice-cold Hank's balanced salt solution (HBSS; Gibco), then diced and pooled per genotype. […] The dissociated tissues were centrifuged at 145×g for 5 min and the pellet was then triturated with a pipette five to six times. […] The cells were fed with ⅓ volume fresh medium every fifth day.\nThe stained cells were washed twice with PBS and fixed with ice-cold methanol for 15 min at room temperature. Mitochondria were visualized using the SP5 confocal microscope (Leica). 8 random areas were sampled. Circularity was determined using ImageJ with an internal plugin."}, "HD lymphoblasts": {"tested_on": "HD lymphoblasts", "conditions": "5 μM, H2O2-challenged conditions, p=0.0001", "description": "H2O2 (9.8 M stock) was dissolved in cell culture medium prior to experimentation. Primary neurons and lymphoblasts cultured on PDL-coated plates were treated with H2O2 (0-1 mM) for up to 6 hours. Oxidative stress was measured using the CellROX red reagent (Life Technologies, catalog no. C10422). Cells were treated with 5 μM CellRox red in complete medium, then incubated for 30 minutes. The cells were then washed with PBS and imaged on a Zeiss Axiovert inverted microscope (Zeiss, Jena, Germany) using a 10× objective. Exposure settings were maintained for all samples. Eight random fields were sampled, and the fluorescence intensity was measured using ImageJ software and normalized to the DAPI signal."}},
  "note": "Where two headings read alike, the source gives them in different places.",
  "data": [
    {"smiles": "CCCN1CCC(c2cccc(S(C)(=O)=O)c2)CC1", "note": "[Pridopidine, 4-[3-(methylsulfonyl)phenyl]-1-propyl-piperidine]", "values": [
      {"measurement": "velocity of motile mitochondria", "setting": "YAC128 striatal neurons; YAC128 neurons, p<0.05", "result": "This decrease was ameliorated"},
      {"measurement": "proportion of motile mitochondria", "setting": "YAC128 striatal neurons; YAC128 striatal neurons, p=0.0286", "result": "significantly increases the proportion of motile mitochondria"},
      {"measurement": "mitochondrial membrane potential (MMP), TMRM release", "setting": "[1]; WT striatal neurons, 1 μM, p=0.0013", "result": "also increases MMP"},
      {"measurement": "mitochondrial membrane potential (MMP), TMRM release", "setting": "[1]; Y128 high mHTT, cortical neurons, 0.1 μM, p=0.015", "result": "significantly increases MMP"},
      {"measurement": "mitochondrial membrane potential (MMP), TMRM release", "setting": "[1]; Y128 high mHTT, cortical neurons, 1 μM, p=0.0201", "result": "significantly increases MMP"},
      {"measurement": "mitochondrial membrane potential (MMP), TMRM release", "setting": "[1]; Y128 high mHTT, striatal neurons, 0.1 μM, p=0.0407", "result": "significantly increases MMP"},
      {"measurement": "mitochondrial membrane potential (MMP), TMRM release", "setting": "[1]; Y128 high mHTT, striatal neurons, 1 μM, p=0.0017", "result": "significantly increases MMP"},
      {"measurement": "mitochondrial membrane potential (MMP), TMRM release", "setting": "[1]; Y128 low mHTT, cortical neurons, 0.1 μM, p=0.0008", "result": "significantly increases MMP"},
      {"measurement": "mitochondrial membrane potential (MMP), TMRM release", "setting": "[1]; Y128 low mHTT, cortical neurons, 1 μM, p=0.0303", "result": "significantly increases MMP"},
      {"measurement": "mitochondrial membrane potential (MMP), TMRM release", "setting": "[1]; Y128 low mHTT, striatal neurons, 0.1 μM, p=0.0274", "result": "significantly increases MMP"},
      {"measurement": "MMP (TMRE signal) after H2O2", "setting": "HD human lymphoblasts; HD human lymphoblasts, 5 μM, then H2O2 6 h", "result": "significant rescue effect"},
      {"measurement": "restoration of membrane potential", "setting": "HD human lymphoblasts; human lymphoblasts, 10 μM, then 0.1 mM H2O2 6 h, p=0.1389", "result": "less efficacious and shows less restoration of membrane potential"},
      {"measurement": "concentration of maximal effect on MMP (bell-shaped dose-response)", "setting": "HD human lymphoblasts; human lymphoblasts, then 0.1 mM H2O2 6 h", "result": 5, "unit": "µM"},
      {"measurement": "H2a-GFP accumulation, of the untreated control", "setting": "[2]; cells positive for mHtt (Htt96Q-mCherry) aggregates", "result": 40, "unit": "%"},
      {"measurement": "ER stress (H2a-GFP relative intensity), dose dependence", "setting": "[2]; cells with Htt96Q-mCherry aggregates, from 0.03 to 150 μM", "result": "significantly reduces ER stress in a dose-dependent manner"},
      {"measurement": "H2a-GFP levels", "setting": "[2]; cells without aggregates or cells expressing Htt20Q-mCherry", "result": "does not alter H2a-GFP levels"},
      {"measurement": "percent of cells that show visible Htt96Q-mCherry aggregates", "setting": "[2]; expression of Htt96Q-mCherry for 24 h", "result": "unchanged"},
      {"measurement": "S1R/BiP colocalization", "setting": "[3]; cells expressing Htt20Q", "result": "does not affect S1R/BiP colocalization"},
      {"measurement": "S1R/BiP colocalization (BiP-RFP)", "setting": "[3]; cells expressing Htt96Q aggregates, 150 μM", "result": "restores S1R/BiP colocalization in cells expressing Htt96Q aggregates to normal, unstressed levels"},
      {"measurement": "colocalization of S1R and BiP-GFP", "setting": "[3]; cells expressing myc-Htt96Q, 150 μM", "result": "shows a trend towards increasing colocalization"},
      {"measurement": "increase of the amount of Htt96Q in SDS-insoluble aggregates", "setting": "[4]; S1R+/+ cells", "result": "up to 35%"},
      {"measurement": "effect on Htt96Q in SDS-insoluble aggregates", "setting": "[4]; S1R−/− cells", "result": "abolished"},
      {"measurement": "mitochondrial morphology (percentage of circular and elongated mitochondria)", "setting": "[5]", "result": "corrects Y128 morphology to WT levels"},
      {"measurement": "decrease of ROS levels (CellRox)", "setting": "HD lymphoblasts", "result": 57, "unit": "%"}
    ]}
  ]
}
